The text below walks through data of patent US8025905B2, “Method for reducing allergencity in indoor spaces” (priority 2001, dated 2011).

In one series the test system is house dust mites. The note with it: levels of only 0.1% permethrin; cited from earlier work.
For series [1] the following is noted: ointment containing 5% permethrin applied for 12 hours, then washed off; cited from earlier work.
The next series has as its system allergenic polypeptides. Put plainly: Enzymatic degradation of allergens by proteases. The class given is biochemical. The source says: Any enzyme that will cleave the allergenic polypeptides to destroy the epitopes recognized by the asthmatic's sensitized immune system is suitable, but proteases that are less specific (i.e., hydrolyze peptide bonds between a variety of different amino acid residues, rather than only between specific residues) are preferred. […] Similar non-specific proteases are suitable for use in this invention, as well as Bacillus neutral proteases and the like. Genetically engineered enzymes are within the contemplation of this invention, so long as the resulting enzyme can be shown to destroy allergenic epitopes of the primary allergens, as shown by ELISA tests (see, e.g., U.S. Pat. No. 5,314,991). Suitable assays may be analogous to the tests for active T cell epitopes of Der pI, Der pII, Der f1, and Der fII disclosed in U.S. Pat. No. 5,968,526 (incorporated herein by reference).

On to `CC1(C)C(C=C(Cl)Cl)C1C(=O)OCc1cccc(Oc2ccccc2)c1` (stereo not shown) [Permethrin], for which the “kill of house dust mites in carpet” value in the series on house dust mites is given as 100%. In addition, in series [1], the “permethrin absorbed through the skin” value was “Less than 2%”.

B1: subtilisin BPN: subtilisin-type protease derived from B. amyloliquefaciens (protein, UniProt P00782 108-382, looked up)
Subtilisin BPN': AQSVPYGVSQIKAPALHSQGYTGSNVKVAVIDSGIDSSHPDLKVAGGASMVPSETNPFQDNNSHGTHVAGTVAALNNSIGVLGVAPSASLYAVKVLGADGSGQYSWIINGIEWAIANNMDVINMSLGGPSGSAALKAAVDKAVASGVVVVAAAGNEGTSGSSSTVGYPGKYPSVIAVGAVDSSNQRASFSSVGPELDVMAPGVSIQSTLPGNKYGAYNGTSMASPHVAGAAALILSKHPNWTNTQVRSSLENTTTKLGDSFYYGKGLINVQAAAQ
Regarding B1, the “effectiveness in cleaving allergenic polypeptides” value with allergenic polypeptides is recorded as “effective”.

B2: subtilisin savinase: subtilisin-type protease derived from Bacillus lentus (protein, UniProt P29600 1-269, looked up)
Subtilisin Savinase: AQSVPWGISRVQAPAAHNRGLTGSGVKVAVLDTGISTHPDLNIRGGASFVPGEPSTQDGNGHGTHVAGTIAALNNSIGVLGVAPSAELYAVKVLGASGSGSVSSIAQGLEWAGNNGMHVANLSLGSPSPSATLEQAVNSATSRGVLVVAASGNSGAGSISYPARYANAMAVGATDQNNNRASFSQYGAGLDIVAPGVNVQSTYPGSTYASLNGTSMATPHVAGAAALVKQKNPSWSNVQIRNHLKNTATSLGSTNLYGSGLVNAEAATR
For B2, in the series on allergenic polypeptides, the “effectiveness in cleaving allergenic polypeptides” value was “effective”.
